The values below come from patent publication US20090156517A1, “STABLE PHARMACEUTICAL COMPOSITIONS OF AMINOGLYCOSIDE ANTIBIOTICS, ION-CHELATING AGENTS, AND BUFFERS” (priority 2006, published 2009).

The nature of this data set: Amounts of antibiotic components in the solution over time (reverse-phase LC/UV for β-lactams and β-lactamase inhibitors, HPLC/evaporation-light-scattering for aminoglycosides). Format: physicochemical. How it is done:
The amounts of β-lactam antibiotics and β-lactamase inhibitor were determined using C18 reverse-phase LC and UV-VIS detector (Tianjin […] Co., Ltd., analysis method No. HM-K-03). The content of aminoglycoside antibiotics was measured using reverse-phase HPLC and evaporation-light-scattering detector (Tianjin […] Co., Ltd., analysis method No. HM-K-08). […] The relative amount of each antibiotic component in the composition at each time point was expressed as peak area ratio with respect to the corresponding peak area of an external standard.

On to `NCC[C@H](O)C(=O)N[C@@H]1C[C@H](N)[C@@H](O[C@H]2O[C@H](CN)[C@@H](O)[C@H](O)[C@H]2O)[C@H](O)[C@H]1O[C@H]1O[C@H](CO)[C@@H](O)[C@H](N)[C@H]1O` [Amikacin, amikacin], for which the “Amount of component, percentage of amount at initial time” value was determined as 96.88% (Example 9: amikacin sulfate/disodium EDTA/citrate pH 6.5 solution with fructose stored 7 days at minus 20° C., thawed, cefodizime sodium added, 0 h); 97.78% (Example 9: amikacin sulfate/disodium EDTA/citrate pH 6.5 solution with fructose stored 7 days at minus 20° C., thawed, cefodizime sodium added, 1 h); 96.14% (Example 9: amikacin sulfate/disodium EDTA/citrate pH 6.5 solution with fructose stored 7 days at minus 20° C., thawed, cefodizime sodium added, 2 h); 96.88% (Example 9: amikacin sulfate/disodium EDTA/citrate pH 6.5 solution with fructose stored 7 days at minus 20° C., thawed, cefodizime sodium added, 4 h); 98.34% (Example 9: amikacin sulfate/disodium EDTA/citrate pH 6.5 solution with fructose stored 7 days at minus 20° C., thawed, cefodizime sodium added, 6 h); 98.11% (Example 9: amikacin sulfate/disodium EDTA/citrate pH 6.5 solution with fructose stored 7 days at minus 20° C., thawed, cefodizime sodium added, 8 h). Moreover, the “Amount of component, percentage of amount at initial time” value reads like this: (Example 12: thawed solution from Example 10, pH 6.0, amikacin sulfate added, no EDTA, 0 h) 86.05%; (Example 12: thawed solution from Example 10, pH 6.0, amikacin sulfate added, no EDTA, 1 h) 83.57%; (Example 12: thawed solution from Example 10, pH 6.0, amikacin sulfate added, no EDTA, 2 h) 81.55%; (Example 12: thawed solution from Example 10, pH 6.0, amikacin sulfate added, no EDTA, 4 h) 80.55%; (Example 12: thawed solution from Example 10, pH 6.0, amikacin sulfate added, no EDTA, 6 h) 85.75%; (Example 12: thawed solution from Example 10, pH 6.0, amikacin sulfate added, no EDTA, 8 h) 83.83%.
With `CCN1CCN(C(=O)N[C@@H](C(=O)N[C@@H]2C(=O)N3C(C(=O)O)=C(CSc4nnnn4C)CS[C@H]23)c2ccc(O)cc2)C(=O)C1=O` [Cefoperazone sodium, cefoperazone sodium], the “Amount of component, percentage of amount at initial time” value reads like this: (Example 4 solution (cefoperazone sodium, sulbactam sodium, gentamicin, sodium citrate pH 6.75, no EDTA), room temperature, 0 h) 101.4%; (Example 4 solution (cefoperazone sodium, sulbactam sodium, gentamicin, sodium citrate pH 6.75, no EDTA), room temperature, 1 h) 98.66%; (Example 4 solution (cefoperazone sodium, sulbactam sodium, gentamicin, sodium citrate pH 6.75, no EDTA), room temperature, 2 h) 98.79%; (Example 4 solution (cefoperazone sodium, sulbactam sodium, gentamicin, sodium citrate pH 6.75, no EDTA), room temperature, 4 h) 101.5%; (Example 4 solution (cefoperazone sodium, sulbactam sodium, gentamicin, sodium citrate pH 6.75, no EDTA), room temperature, 6 h) 107.4%; (Example 5 solution (cefoperazone sodium, sulbactam sodium, gentamicin, disodium EDTA, sodium citrate pH 6.75), room temperature, 0 h) 101.4%. For the same compound, the “Amount of component, percentage of amount at initial time” value by setting is: (Example 5 solution (cefoperazone sodium, sulbactam sodium, gentamicin, disodium EDTA, sodium citrate pH 6.75), room temperature, 1 h) 98.66%; (Example 5 solution (cefoperazone sodium, sulbactam sodium, gentamicin, disodium EDTA, sodium citrate pH 6.75), room temperature, 2 h) 98.79%; (Example 5 solution (cefoperazone sodium, sulbactam sodium, gentamicin, disodium EDTA, sodium citrate pH 6.75), room temperature, 4 h) 101.5%; (Example 5 solution (cefoperazone sodium, sulbactam sodium, gentamicin, disodium EDTA, sodium citrate pH 6.75), room temperature, 6 h) 107.4%; (Example 6 solution (cefoperazone sodium, sulbactam sodium, etimicin sulfate, disodium EDTA, sodium citrate pH 6.5), room temperature, 0 h) 110.4%; (Example 6 solution (cefoperazone sodium, sulbactam sodium, etimicin sulfate, disodium EDTA, sodium citrate pH 6.5), room temperature, 1 h) 99.48%. In addition, the “Amount of component, percentage of amount at initial time” value reads like this: (Example 6 solution (cefoperazone sodium, sulbactam sodium, etimicin sulfate, disodium EDTA, sodium citrate pH 6.5), room temperature, 2 h) 101.3%; (Example 6 solution (cefoperazone sodium, sulbactam sodium, etimicin sulfate, disodium EDTA, sodium citrate pH 6.5), room temperature, 4 h) 98.66%; (Example 6 solution (cefoperazone sodium, sulbactam sodium, etimicin sulfate, disodium EDTA, sodium citrate pH 6.5), room temperature, 6 h) 98.02%; (Example 6 solution (cefoperazone sodium, sulbactam sodium, etimicin sulfate, disodium EDTA, sodium citrate pH 6.5), room temperature, 8 h) 99.30%; (Example 14: cefoperazone sodium/tazobactam sodium solution pH 6.75, disodium EDTA and amikacin sulfate added, room temperature, 0 h) 100.2%; (Example 14: cefoperazone sodium/tazobactam sodium solution pH 6.75, disodium EDTA and amikacin sulfate added, room temperature, 1 h) 99.0%. The “Amount of component, percentage of amount at initial time” value runs as follows: (Example 14: cefoperazone sodium/tazobactam sodium solution pH 6.75, disodium EDTA and amikacin sulfate added, room temperature, 2 h) 99.0%; (Example 14: cefoperazone sodium/tazobactam sodium solution pH 6.75, disodium EDTA and amikacin sulfate added, room temperature, 4 h) 96.2%; (Example 14: cefoperazone sodium/tazobactam sodium solution pH 6.75, disodium EDTA and amikacin sulfate added, room temperature, 6 h) 94.5%; (Example 14: cefoperazone sodium/tazobactam sodium solution pH 6.75, disodium EDTA and amikacin sulfate added, room temperature, 8 h) 95.3%; (Example 14: cefoperazone sodium/tazobactam sodium solution pH 6.75, etimicin sulfate added, 0 h) 100.2%; (Example 14: cefoperazone sodium/tazobactam sodium solution pH 6.75, etimicin sulfate added, 1 h) 99.0%. Besides, the “Amount of component, percentage of amount at initial time” value worked out at 99.0% (Example 14: cefoperazone sodium/tazobactam sodium solution pH 6.75, etimicin sulfate added, 2 h); 96.2% (Example 14: cefoperazone sodium/tazobactam sodium solution pH 6.75, etimicin sulfate added, 4 h); 94.5% (Example 14: cefoperazone sodium/tazobactam sodium solution pH 6.75, etimicin sulfate added, 6 h); 95.3% (Example 14: cefoperazone sodium/tazobactam sodium solution pH 6.75, etimicin sulfate added, 8 h).
With `CO/N=C(\C(=O)N[C@@H]1C(=O)N2C(C(=O)O)=C(CSc3nc(=O)c(=O)[nH]n3C)CS[C@H]12)c1csc(N)n1` [Ceftriaxone sodium, ceftriaxone sodium], the “Amount of component, percentage of amount at initial time” value was 97.01% (Example 7 solution (ceftriaxone sodium, sulbactam sodium, etimicin sulfate, disodium EDTA, sodium citrate pH 6.5), room temperature, 0 h); 100.3% (Example 7 solution (ceftriaxone sodium, sulbactam sodium, etimicin sulfate, disodium EDTA, sodium citrate pH 6.5), room temperature, 1 h); 96.40% (Example 7 solution (ceftriaxone sodium, sulbactam sodium, etimicin sulfate, disodium EDTA, sodium citrate pH 6.5), room temperature, 2 h); 99.01% (Example 7 solution (ceftriaxone sodium, sulbactam sodium, etimicin sulfate, disodium EDTA, sodium citrate pH 6.5), room temperature, 4 h); 98.91% (Example 7 solution (ceftriaxone sodium, sulbactam sodium, etimicin sulfate, disodium EDTA, sodium citrate pH 6.5), room temperature, 6 h); 99.53% (Example 7 solution (ceftriaxone sodium, sulbactam sodium, etimicin sulfate, disodium EDTA, sodium citrate pH 6.5), room temperature, 8 h). Also, the “Amount of component, percentage of amount at initial time” value is, setting by setting: (Example 8 solution (ceftriaxone sodium, tazobactam sodium, gentamicin sulfate, sodium citrate pH 6.75), room temperature, 0 h) 98.75%; (Example 8 solution (ceftriaxone sodium, tazobactam sodium, gentamicin sulfate, sodium citrate pH 6.75), room temperature, 1 h) 100.1%; (Example 8 solution (ceftriaxone sodium, tazobactam sodium, gentamicin sulfate, sodium citrate pH 6.75), room temperature, 2 h) 99.97%; (Example 8 solution (ceftriaxone sodium, tazobactam sodium, gentamicin sulfate, sodium citrate pH 6.75), room temperature, 4 h) 98.87%; (Example 8 solution (ceftriaxone sodium, tazobactam sodium, gentamicin sulfate, sodium citrate pH 6.75), room temperature, 6 h) 99.27%; (Example 8 solution (ceftriaxone sodium, tazobactam sodium, gentamicin sulfate, sodium citrate pH 6.75), room temperature, 8 h) 100.5%.
